# Laboratory results from paper PMC4303209, “A novel phosphatidylinositol 3-kinase (PI3K) inhibitor directs a potent FOXO-dependent, p53-independent cell cycle arrest phenotype characterized by the differential induction of a subset of FOXO-regulated genes” (Breast Cancer Research : BCR, 2014).
# System: MCF-7 breast cancer cells
# Assay: Microarray gene expression analysis (Agilent whole human genome 4 x 44K; compound vs DMSO, LIMMA log2 fold change)
# Format: cell-based
smiles,measurement,setting,value
Cn1ncc2c(N3CCOCC3)nc(-c3cccc(O)c3)nc21 [ETP-45658],PRNP log2FC,,0.370
same,log2FC,,0.370
same,AARS log2FC,"Apoptosis genes, Gene 16",-0.198
same,ABL1 log2FC,"Apoptosis genes, Gene 25",-0.156
same,ABR log2FC,"Apoptosis genes, Gene 29",-0.380
same,ACTN4 log2FC,"Apoptosis genes, Gene 81",-0.260
same,ACTN1 log2FC,"Apoptosis genes, Gene 87",-0.609
same,ACTN2 log2FC,"Apoptosis genes, Gene 88",0.099
same,ACTN3 log2FC,"Apoptosis genes, Gene 89",-0.693
same,ACVR1 log2FC,"Apoptosis genes, Gene 90",0.534
same,ACVR1B log2FC,"Apoptosis genes, Gene 91",-0.563
same,ADA log2FC,"Apoptosis genes, Gene 100",-0.213
same,ADAM8 log2FC,"Apoptosis genes, Gene 101",-0.364
same,ADAR log2FC,"Apoptosis genes, Gene 103",-0.197
same,ADCYAP1 log2FC,"Apoptosis genes, Gene 116",0.068
same,ADD1 log2FC,"Apoptosis genes, Gene 118",-0.295
same,ADM log2FC,"Apoptosis genes, Gene 133",-0.856
same,ADORA1 log2FC,"Apoptosis genes, Gene 134",-2.012
same,ADORA2A log2FC,"Apoptosis genes, Gene 135",-0.309
same,ADRB1 log2FC,"Apoptosis genes, Gene 153",-0.090
same,AES log2FC,"Apoptosis genes, Gene 166",-0.293
same,AGT log2FC,"Apoptosis genes, Gene 183",-0.104
same,AHR log2FC,"Apoptosis genes, Gene 196",0.995
same,AKT1 log2FC,"Apoptosis genes, Gene 207",-0.608
same,AKT2 log2FC,"Apoptosis genes, Gene 208",-0.554
same,ALDH1A3 log2FC,"Apoptosis genes, Gene 220",0.149
same,ALDOC log2FC,"Apoptosis genes, Gene 230",-0.120
same,ALK log2FC,"Apoptosis genes, Gene 238",-0.050
same,ALOX15B log2FC,"Apoptosis genes, Gene 247",-0.102
same,ANGPT1 log2FC,"Apoptosis genes, Gene 284",-0.676
same,SLC25A4 log2FC,"Apoptosis genes, Gene 291",-0.331
same,SLC25A5 log2FC,"Apoptosis genes, Gene 292",0.173
same,ANXA1 log2FC,"Apoptosis genes, Gene 301",0.991
same,ANXA4 log2FC,"Apoptosis genes, Gene 307",0.463
same,ANXA5 log2FC,"Apoptosis genes, Gene 308",0.266
same,APAF1 log2FC,"Apoptosis genes, Gene 317",0.550
same,NUDT2 log2FC,"Apoptosis genes, Gene 318",0.291
same,APBB2 log2FC,"Apoptosis genes, Gene 323",-0.357
same,APC log2FC,"Apoptosis genes, Gene 324",0.117
same,BIRC3 log2FC,"Apoptosis genes, Gene 330",-0.843
same,BIRC5 log2FC,"Apoptosis genes, Gene 332",0.154
same,APLP1 log2FC,"Apoptosis genes, Gene 333",-0.281
same,APOE log2FC,"Apoptosis genes, Gene 348",-0.224
same,APP log2FC,"Apoptosis genes, Gene 351",0.379
same,FASLG log2FC,"Apoptosis genes, Gene 356",-0.198
same,AQP2 log2FC,"Apoptosis genes, Gene 359",-0.102
same,AR log2FC,"Apoptosis genes, Gene 367",0.203
same,ARAF log2FC,"Apoptosis genes, Gene 369",-0.542
same,ARF6 log2FC,"Apoptosis genes, Gene 382",-0.682
same,RHOB log2FC,"Apoptosis genes, Gene 388",-0.133
same,ARHGAP4 log2FC,"Apoptosis genes, Gene 393",-0.218
same,ARHGDIA log2FC,"Apoptosis genes, Gene 396",-1.118
same,ARRB2 log2FC,"Apoptosis genes, Gene 409",0.237
same,ASCL1 log2FC,"Apoptosis genes, Gene 429",-0.107
same,ASNS log2FC,"Apoptosis genes, Gene 440",-0.404
same,ATF4 log2FC,"Apoptosis genes, Gene 468",0.324
same,ATM log2FC,"Apoptosis genes, Gene 472",0.117
same,ATP2A1 log2FC,"Apoptosis genes, Gene 487",0.239
same,AVP log2FC,"Apoptosis genes, Gene 551",-0.579
same,AXL log2FC,"Apoptosis genes, Gene 558",-0.230
same,AZU1 log2FC,"Apoptosis genes, Gene 566",-0.123
same,BAD log2FC,"Apoptosis genes, Gene 572",0.276
same,BAG1 log2FC,"Apoptosis genes, Gene 573",1.170
same,BAK1 log2FC,"Apoptosis genes, Gene 578",-0.356
same,BARD1 log2FC,"Apoptosis genes, Gene 580",0.487
same,BAX log2FC,"Apoptosis genes, Gene 581",-0.255
same,BCL2 log2FC,"Apoptosis genes, Gene 596",-0.310
same,BCL2A1 log2FC,"Apoptosis genes, Gene 597",-0.192
same,BCL2L1 log2FC,"Apoptosis genes, Gene 598",-0.991
same,BCL2L2 log2FC,"Apoptosis genes, Gene 599",0.428
same,BCL3 log2FC,"Apoptosis genes, Gene 602",-0.569
same,BCL6 log2FC,"Apoptosis genes, Gene 604",0.771
same,BDNF log2FC,"Apoptosis genes, Gene 627",-0.132
same,BID log2FC,"Apoptosis genes, Gene 637",-0.095
same,BIK log2FC,"Apoptosis genes, Gene 638",-0.815
same,BLM log2FC,"Apoptosis genes, Gene 641",0.293
same,BMP4 log2FC,"Apoptosis genes, Gene 652",0.407
same,BMP7 log2FC,"Apoptosis genes, Gene 655",-0.344
same,BMPR1B log2FC,"Apoptosis genes, Gene 658",-0.091
same,BMX log2FC,"Apoptosis genes, Gene 660",0.114
same,BNIP1 log2FC,"Apoptosis genes, Gene 662",0.672
same,BNIP2 log2FC,"Apoptosis genes, Gene 663",0.527
same,BNIP3 log2FC,"Apoptosis genes, Gene 664",0.774
same,BNIP3L log2FC,"Apoptosis genes, Gene 665",1.085
same,FOXL2 log2FC,"Apoptosis genes, Gene 668",-0.812
same,BRCA1 log2FC,"Apoptosis genes, Gene 672",0.792
same,BRAF log2FC,"Apoptosis genes, Gene 673",-0.105
same,BRCA2 log2FC,"Apoptosis genes, Gene 675",0.092
same,BTC log2FC,"Apoptosis genes, Gene 685",0.205
same,BTG1 log2FC,"Apoptosis genes, Gene 694",1.142
same,BUB1 log2FC,"Apoptosis genes, Gene 699",0.803
same,BUB1B log2FC,"Apoptosis genes, Gene 701",0.344
same,TSPO log2FC,"Apoptosis genes, Gene 706",-0.089
same,C5AR1 log2FC,"Apoptosis genes, Gene 728",0.064
same,CACNA1A log2FC,"Apoptosis genes, Gene 773",-0.187
same,CALR log2FC,"Apoptosis genes, Gene 811",-0.081
same,CAMK2B log2FC,"Apoptosis genes, Gene 816",-0.123
same,CAST log2FC,"Apoptosis genes, Gene 831",0.572
same,CASP1 log2FC,"Apoptosis genes, Gene 834",0.048
same,CASP2 log2FC,"Apoptosis genes, Gene 835",-0.918
same,CASP3 log2FC,"Apoptosis genes, Gene 836",0.546
same,CASP4 log2FC,"Apoptosis genes, Gene 837",0.181
same,CASP5 log2FC,"Apoptosis genes, Gene 838",-0.128
same,CASP6 log2FC,"Apoptosis genes, Gene 839",0.574
same,CASP7 log2FC,"Apoptosis genes, Gene 840",-0.211
same,CASP8 log2FC,"Apoptosis genes, Gene 841",0.613
same,CASP9 log2FC,"Apoptosis genes, Gene 842",0.372
same,CASR log2FC,"Apoptosis genes, Gene 846",0.039
same,CAT log2FC,"Apoptosis genes, Gene 847",0.577
same,CAV1 log2FC,"Apoptosis genes, Gene 857",0.205
same,RUNX3 log2FC,"Apoptosis genes, Gene 864",-0.494
same,CBL log2FC,"Apoptosis genes, Gene 867",0.301
same,CBS log2FC,"Apoptosis genes, Gene 875",-0.275
same,KRIT1 log2FC,"Apoptosis genes, Gene 889",0.668
same,CCNG1 log2FC,"Apoptosis genes, Gene 900",0.908
same,CD2 log2FC,"Apoptosis genes, Gene 914",-0.352
same,CD3E log2FC,"Apoptosis genes, Gene 916",-0.399
same,CD3G log2FC,"Apoptosis genes, Gene 917",-0.295
same,CD5 log2FC,"Apoptosis genes, Gene 921",-0.055
same,CD5L log2FC,"Apoptosis genes, Gene 922",-0.110
same,CD14 log2FC,"Apoptosis genes, Gene 929",-0.514
same,CD28 log2FC,"Apoptosis genes, Gene 940",0.087
same,CD40 log2FC,"Apoptosis genes, Gene 958",-0.420
same,CD44 log2FC,"Apoptosis genes, Gene 960",-0.380
same,CD59 log2FC,"Apoptosis genes, Gene 966",0.286
same,CD74 log2FC,"Apoptosis genes, Gene 972",-0.135
same,CDC34 log2FC,"Apoptosis genes, Gene 997",0.349
same,CDC42 log2FC,"Apoptosis genes, Gene 998",0.143
same,CDK4 log2FC,"Apoptosis genes, Gene 1019",0.113
same,CDKN1A log2FC,"Apoptosis genes, Gene 1026",-1.401
same,CDKN1B log2FC,"Apoptosis genes, Gene 1027",1.129
same,CDKN2A log2FC,"Apoptosis genes, Gene 1029",0.240
same,CDKN2D log2FC,"Apoptosis genes, Gene 1032",0.891
same,CEBPB log2FC,"Apoptosis genes, Gene 1051",-0.358
same,CFL1 log2FC,"Apoptosis genes, Gene 1072",-0.261
same,CTSC log2FC,"Apoptosis genes, Gene 1075",-0.466
same,CGB log2FC,"Apoptosis genes, Gene 1082",-0.136
same,CLU log2FC,"Apoptosis genes, Gene 1191",-0.261
same,CLN3 log2FC,"Apoptosis genes, Gene 1201",-0.330
same,CCR7 log2FC,"Apoptosis genes, Gene 1236",0.098
same,PLK3 log2FC,"Apoptosis genes, Gene 1263",-1.808
same,CNR1 log2FC,"Apoptosis genes, Gene 1268",0.800
same,ATF2 log2FC,"Apoptosis genes, Gene 1386",0.857
same,CRH log2FC,"Apoptosis genes, Gene 1392",0.120
same,CRIP1 log2FC,"Apoptosis genes, Gene 1396",0.282
same,CRYAA log2FC,"Apoptosis genes, Gene 1409",-0.057
same,CRYAB log2FC,"Apoptosis genes, Gene 1410",-0.139
same,MAPK14 log2FC,"Apoptosis genes, Gene 1432",-0.291
same,CSE1L log2FC,"Apoptosis genes, Gene 1434",0.841
same,CSF2 log2FC,"Apoptosis genes, Gene 1437",-0.666
same,CSNK2A1 log2FC,"Apoptosis genes, Gene 1457",-0.545
same,CSNK2A2 log2FC,"Apoptosis genes, Gene 1459",0.183
same,CSTB log2FC,"Apoptosis genes, Gene 1476",0.083
same,NKX2-5 log2FC,"Apoptosis genes, Gene 1482",-0.753
same,CTGF log2FC,"Apoptosis genes, Gene 1490",-0.597
same,CTH log2FC,"Apoptosis genes, Gene 1491",0.708
